± gives the standard deviation of the averaged measurements.
System: WB-F344
Assay: gap junctional intercellular communication (dye spread) relative to vehicle control (fraction of control); higher = more gap junction communication (less inhibition)
Description: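 Confluent WB-F344 rat liver epithelial cells were pretreated with vehicle, D609 (PC-PLC inhibitor, 50 µM, 20 min), U0126 (MEK1/2 inhibitor, 20 µM, 30 min) or resveratrol (100 µM, 15 min), then exposed to a GJIC-dysregulating chemical at the listed dose and time. GJIC was measured by scalpel loading-dye transfer with Lucifer Yellow (3 min), and the dye-spread area was quantified in ImageJ as a fraction of the vehicle control (FOC). Individual values come from at least 3 independent experiments.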

[1] = pretreatment: D609+GJIC dysreg.
[2] = pretreatment: U0126+GJIC dysreg.

| Structure (SMILES) | gap junctional intercellular communication [1] | gap junctional intercellular communication (pretreatment: GJIC dysreg.) | gap junctional intercellular communication (pretreatment: RES+GJIC dysreg.) | gap junctional intercellular communication [2] | further results |
| --- | --- | --- | --- | --- | --- |
| O=C(OOC(=O)c1ccccc1)c1ccccc1 [Benzoylperoxide] (compound abbreviation / co-treatment: BzOOH, exposure (dose, time): 200 µM, 15 min) | 0.373 ± 0.057 | 0.368 ± 0.085 | 0.313 ± 0.084 | 0.33 ± 0.14 | – |
| Cc1nc2sccn2c(=O)c1CCN1CCC(=C(c2ccccc2)c2ccc(F)cc2)CC1 (compound abbreviation / co-treatment: R59022, exposure (dose, time): 30-50 µM, 10 min) | 0.848 ± 0.081 | 0.344 ± 0.13 | 0.867 ± 0.16 | 0.641 ± 0.11 | – |
| Oc1c(Cl)c(Cl)c(Cl)c(Cl)c1Cl [Pentachlorophenol] (compound abbreviation / co-treatment: PCP, exposure (dose, time): 50 µM, 10 min) | 0.335 ± 0.068 | 0.282 ± 0.055 | 0.387 ± 0.14 | 0.336 ± 0.023 | – |
| Cc1cccc2cc3ccccc3cc12 [1-Methylanthracene] (compound abbreviation / co-treatment: 1-MeA, exposure (dose, time): 70 µM, 10 min) | 0.872 ± 0.094 | 0.278 ± 0.066 | 0.818 ± 0.14 | 0.262 ± 0.067 | – |
| Cl[C@H]1[C@H](Cl)[C@@H](Cl)[C@@H](Cl)[C@H](Cl)[C@H]1Cl [Lindane] (compound abbreviation / co-treatment: Lindane, exposure (dose, time): 60 µM, 25 min) | 0.335 ± 0.046 | 0.282 ± 0.062 | 0.741 ± 0.048 | 0.695 ± 0.16 | – |
| CCCCC/C=C\C/C=C\C/C=C\C/C=C\CCCC(=O)O [Arachidonic acid] (compound abbreviation / co-treatment: AA, exposure (dose, time): 70-100 µM, 15 min) | – | – | – | – | gap junctional intercellular communication (dose note: (70 uM), pretreatment: D609+GJIC dysreg.): 0.164; gap junctional intercellular communication (dose note: (70 uM), pretreatment: GJIC dysreg.): 0.196; gap junctional intercellular communication (dose note: (70 uM), pretreatment: RES+GJIC dysreg.): 0.193; gap junctional intercellular communication (dose note: (70 uM), pretreatment: U0126+GJIC dysreg.): 0.244; gap junctional intercellular communication (dose note: (75 uM), pretreatment: D609+GJIC dysreg.): 0.2; gap junctional intercellular communication (dose note: (75 uM), pretreatment: GJIC dysreg.): 0.2; gap junctional intercellular communication (dose note: (75 uM), pretreatment: RES+GJIC dysreg.): 0.207; gap junctional intercellular communication (dose note: (75 uM), pretreatment: U0126+GJIC dysreg.): 0.216; gap junctional intercellular communication (dose note: (90 uM), pretreatment: D609+GJIC dysreg.): 0.29 ± 0.055; gap junctional intercellular communication (dose note: (90 uM), pretreatment: GJIC dysreg.): 0.279 ± 0.058; gap junctional intercellular communication (dose note: (90 uM), pretreatment: RES+GJIC dysreg.): 0.25 ± 0.032; gap junctional intercellular communication (dose note: (90 uM), pretreatment: U0126+GJIC dysreg.): 0.347 ± 0.025; gap junctional intercellular communication (dose note: (100 uM), pretreatment: D609+GJIC dysreg.): 0.196; gap junctional intercellular communication (dose note: (100 uM), pretreatment: GJIC dysreg.): 0.193; gap junctional intercellular communication (dose note: (100 uM), pretreatment: RES+GJIC dysreg.): 0.189; gap junctional intercellular communication (dose note: (100 uM), pretreatment: U0126+GJIC dysreg.): 0.199 |
| CCc1cccc(CC)c1N(COC)C(=O)CCl [Alachlor] (compound abbreviation / co-treatment: Alachlor, exposure (dose, time): 185 µM, 25 min) | 0.285 ± 0.08 | 0.259 ± 0.072 | 0.789 ± 0.14 | 0.356 ± 0.12 | – |
| Cc1ccc2ccc3cccc4ccc1c2c34 [1-Methylpyrene] (compound abbreviation / co-treatment: 1-MePyr, exposure (dose, time): 70 µM, 10 min) | 0.956 ± 0.048 | 0.397 ± 0.072 | 0.815 ± 0.15 | 0.345 ± 0.094 | – |
| Clc1ccc(C(c2ccccc2Cl)C(Cl)(Cl)Cl)cc1 (stereo not drawn) [1,1,1-Trichloro-2-(2-chlorophenyl)-2-(4-chlorophenyl)ethane] (compound abbreviation / co-treatment: DDT, exposure (dose, time): 30 µM,  20 min) | 0.832 ± 0.089 | 0.308 ± 0.053 | 0.777 ± 0.025 | 0.337 ± 0.082 | – |

Reference: the supplement of paper PMC4449167
